Values joined by “and” are separate entries in the source; they are usually repeats but may differ in a detail not shown here. Equal entries are not always repeated. Where two headings read alike, the source gives them in different places.
Assays:
WT SV40 MEF = assay type: cell-based, mouse; details: Mus musculus, 72 h
PBMC = assay type: cell-based; details: PBMC (human peripheral blood mononuclear cells, non-cancer), 72 h
HSC-3 = assay type: cell-based, human
HT-29 = assay type: cell-based, human
calf thymus DNA = experiment: DNA intercalation assay (ethidium bromide displacement); assay type: binding; details: 20 μM, cell-free, 15 min
Experimental: DNA intercalation was assessed by examining the ability of the complex to displace ethidium bromide from ctDNA (Sigma-Aldrich)[36]. […] After a 15 min of incubation at room temperature, fluorescence was measured using the excitation and emission wavelengths of 320 nm and 600 nm, respectively, using the Spectramax Microplate Reader (Molecular Devices).

SCC-4 = assay type: cell-based, human
HepG2 cells = experiment: Gene expression analysis by qPCR array (TaqMan Array Human Molecular Mechanisms of Cancer); assay type: cell-based; parameters: key to RQ CCND3 gene expression / RQ CDC42 gene expression / RQ DVL1 gene expression / RQ FYN gene expression / RQ KRAS gene expression / RQ MAP2K1 gene expression / RQ MAPK1 gene expression / RQ MAPK14 gene expression / RQ NFKB2 gene expression / RQ RAF1 gene expression / RQ RELA gene expression / RQ BCAR1 gene expression: 2^-ΔΔCT relative quantification vs 0.2% DMSO control (calibrator = 1); details: HepG2, 12 h; RCX 12 µM, DOX 2 µM
Experimental: HepG2 cells were plated in bottles for cell culture (7 × 10^4 cells/mL). […] The RNA was evaluated by fluorimetry using QuBit (Life Technologies; Camarillo, CA, USA). RNA reverse transcription was performed using a Superscript VILO™ Kit (Invitrogen Corporation; Waltham, MA, USA). A 96-well plate TaqMan® Array Human Molecular Mechanisms of Cancer (ID 4418806, Applied Biosystems^TM, Foster City, CA, USA) was used for the gene expression study by qPCR. The reactions were conducted in an ABI ViiA7 system (Applied Biosystems^TM; Foster City, CA, USA). The cycle conditions comprised 2 min at 50 °C, 20 s at 95 °C, then 40 cycles of 3 s at 95 °C and 30 s at 60 °C. The relative quantification (RQ) of mRNA expression was calculated by the 2^-ΔΔCT method[40] using Gene Expression Suite™ Software (Applied Biosystems^TM), and the cells treated with the negative control (0.2% DMSO) were used as a calibrator. The reactions were normalized by the geometric mean of the RQ of the reference genes GAPDH, 18S and HPRT1. All experiments were performed in DNase/RNase-free conditions.

SCC-15 = assay type: cell-based, human

With `COc1cccc2c1C(=O)c1c(O)c3c(c(O)c1C2=O)C[C@@](O)(C(=O)CO)C[C@@H]3O[C@H]1C[C@H](N)[C@H](O)[C@H](C)O1` [DOX, doxorubicin] the IC50 (WT SV40 MEF) was 40 nM, the IC50 (PBMC) was 5200 nM and the IC50 (HSC-3; HSC-3 (human oral squamous cell carcinoma), 72 h) was 400 nM. For the same compound, the “selectivity index (SI)” value (HSC-3; IC50 HaCAT / IC50 HSC-3) was 0.3, the “selectivity index (SI)” value (HSC-3; IC50 MRC5 / IC50 HSC-3) was 3.3 and the “selectivity index (SI)” value (HSC-3; IC50 PBMC / IC50 HSC-3) was 13. For the same compound, the IC50 (HT-29; HT-29 (human colon adenocarcinoma), 72 h) was 300 nM, the “selectivity index (SI)” value (HT-29; IC50 HaCAT / IC50 HT-29) was 0.3 and the “selectivity index (SI)” value (HT-29; IC50 MRC5 / IC50 HT-29) was 4.3. The “selectivity index (SI)” value (HT-29; IC50 PBMC / IC50 HT-29) was 17.3, the “displacement of ethidium bromide from ctDNA (fluorescence)” value (calf thymus DNA) was “significantly reduced the fluorescence intensity” and the “selectivity index (SI)” value (SCC-4; IC50 HaCAT / IC50 SCC-4) was 0.1. The “selectivity index (SI)” value (SCC-4; IC50 MRC5 / IC50 SCC-4) was 0.6, the “selectivity index (SI)” value (SCC-4; IC50 PBMC / IC50 SCC-4) was 2.5 and the IC50 (SCC-4; SCC-4 (human oral squamous cell carcinoma), 72 h) was 2100 nM. The “RQ ABL1 gene expression” value (HepG2 cells) was 2.628, the “RQ AKT1 gene expression” value (HepG2 cells) was 1.813 and the “RQ AKT2 gene expression” value (HepG2 cells) was 3.3 and 3.275. For the same compound, the “RQ APC gene expression” value (HepG2 cells) was 1.780, the “RQ BAX gene expression” value (HepG2 cells) was 0.964 and the “RQ BCAR1 gene expression” value (HepG2 cells) was 2.2 and 2.176. For the same compound, the “RQ BCL2L1 gene expression” value (HepG2 cells) was 0.663, the “RQ BCL2L11 gene expression” value (HepG2 cells) was 14.0 and 13.988 and the “RQ BCL2 gene expression” value (HepG2 cells) was 1.1 and 1.140. The “RQ BID gene expression” value (HepG2 cells) was 1.433, the “RQ BRAF gene expression” value (HepG2 cells) was 1.0 and 1.012 and the “RQ CASP8 gene expression” value (HepG2 cells) was 1.414. For the same compound, the “RQ CASP9 gene expression” value (HepG2 cells) was 0.957, the “RQ CCND1 gene expression” value (HepG2 cells) was 0.8 and 0.820 and the “RQ CCND3 gene expression” value (HepG2 cells) was 1.2 and 1.151. The “RQ CCNE1 gene expression” value (HepG2 cells) was 1.535, the “RQ CDC42 gene expression” value (HepG2 cells) was 1.1 and 1.077 and the “RQ CDK2 gene expression” value (HepG2 cells) was 4.331. The “RQ CDK4 gene expression” value (HepG2 cells) was 1.4 and 1.427, the “RQ CDKN1A gene expression” value (HepG2 cells) was 2.849 and the “RQ CDKN1B gene expression” value (HepG2 cells) was 1.0 and 1.029. For the same compound, the “RQ CDKN2A gene expression” value (HepG2 cells) was 2.0 and 2.027, the “RQ CRK gene expression” value (HepG2 cells) was 2.5 and 2.519 and the “RQ CTNNB1 gene expression” value (HepG2 cells) was 2.392. The “RQ CYCS gene expression” value (HepG2 cells) was 0.582, the “RQ DVL1 gene expression” value (HepG2 cells) was 0.5 and 0.539 and the “RQ E2F1 gene expression” value (HepG2 cells) was 4.8 and 4.768. For the same compound, the “RQ EGFR gene expression” value (HepG2 cells) was 0.5 and 0.502, the “RQ ELK1 gene expression” value (HepG2 cells) was 2.1 and 2.142 and the “RQ ERBB2 gene expression” value (HepG2 cells) was 1.8 and 1.746. The “RQ FADD gene expression” value (HepG2 cells) was 3.100, the “RQ FAS gene expression” value (HepG2 cells) was 2.5 and 2.459 and the “RQ FGF2 gene expression” value (HepG2 cells) was 1.9 and 1.914. For the same compound, the “RQ FOS gene expression” value (HepG2 cells) was 1.514, the “RQ FYN gene expression” value (HepG2 cells) was 1.0 and 1.034 and the “RQ FZD1 gene expression” value (HepG2 cells) was 5.8 and 5.811. For the same compound, the “RQ GRB2 gene expression” value (HepG2 cells) was 1.030, the “RQ GSK3B gene expression” value (HepG2 cells) was 0.590 and the “RQ HRAS gene expression” value (HepG2 cells) was 1.4 and 1.370. The “RQ IGF1R gene expression” value (HepG2 cells) was 1.160, the “RQ ITGA2B gene expression” value (HepG2 cells) was 2.4 and 2.384 and the “RQ ITGAV gene expression” value (HepG2 cells) was 2.101. The “RQ ITGB1 gene expression” value (HepG2 cells) was 1.941, the “RQ ITGB3 gene expression” value (HepG2 cells) was 1.707 and the “RQ JUN gene expression” value (HepG2 cells) was 7.3 and 7.340. The “RQ KRAS gene expression” value (HepG2 cells) was 2.6 and 2.552, the “RQ MAP2K1 gene expression” value (HepG2 cells) was 2.4 and 2.441 and the “RQ MAP3K5 gene expression” value (HepG2 cells) was 1.887. The “RQ MAPK1 gene expression” value (HepG2 cells) was 0.9 and 0.857, the “RQ MAPK3 gene expression” value (HepG2 cells) was 1.561 and the “RQ MAPK8 gene expression” value (HepG2 cells) was 1.273. The “RQ MAPK14 gene expression” value (HepG2 cells) was 2.2 and 2.163, the “RQ MDM2 gene expression” value (HepG2 cells) was 0.9 and 0.928 and the “RQ MYC gene expression” value (HepG2 cells) was 0.4 and 0.392. For the same compound, the “RQ NFKB1 gene expression” value (HepG2 cells) was 2.0 and 2.017, the “RQ NFKB2 gene expression” value (HepG2 cells) was 3.6 and 3.594 and the “RQ NFKBIA gene expression” value (HepG2 cells) was 1.224. The “RQ NRAS gene expression” value (HepG2 cells) was 1.874, the “RQ PIK3CA gene expression” value (HepG2 cells) was 2.854 and the “RQ PIK3R1 gene expression” value (HepG2 cells) was 6.207. For the same compound, the “RQ PTEN gene expression” value (HepG2 cells) was 0.476, the “RQ PTK2B gene expression” value (HepG2 cells) was 0.530 and the “RQ PTK2 gene expression” value (HepG2 cells) was 1.0 and 0.948. The “RQ RAC1 gene expression” value (HepG2 cells) was 2.048, the “RQ RAF1 gene expression” value (HepG2 cells) was 3.5 and 3.447 and the “RQ RB1 gene expression” value (HepG2 cells) was 1.230. The “RQ RELA gene expression” value (HepG2 cells) was 1.1 and 1.074, the “RQ RHOA gene expression” value (HepG2 cells) was 1.270 and the “RQ SHC1 gene expression” value (HepG2 cells) was 1.9 and 1.865. For the same compound, the “RQ SMAD4 gene expression” value (HepG2 cells) was 2.6 and 2.601, the “RQ SOS1 gene expression” value (HepG2 cells) was 2.2 and 2.199 and the “RQ SRC gene expression” value (HepG2 cells) was 1.036. For the same compound, the “RQ TCF3 gene expression” value (HepG2 cells) was 1.9 and 1.915, the “RQ TGFB1 gene expression” value (HepG2 cells) was 1.413 and the “RQ TGFBR1 gene expression” value (HepG2 cells) was 1.403. For the same compound, the “RQ TGFBR2 gene expression” value (HepG2 cells) was 1.094, the “RQ TP53 gene expression” value (HepG2 cells) was 1.0 and 0.945 and the “RQ VEGFA gene expression” value (HepG2 cells) was 1.8 and 1.772. The “selectivity index (SI)” value (SCC-15; IC50 HaCAT / IC50 SCC-15) was 0.1, the “selectivity index (SI)” value (SCC-15; IC50 MRC5 / IC50 SCC-15) was 0.9 and the “selectivity index (SI)” value (SCC-15; IC50 PBMC / IC50 SCC-15) was 3.5. For the same compound, the IC50 (SCC-15; SCC-15 (human oral squamous cell carcinoma), 72 h) was 1500 nM.

Source: article PMC5833756, “A novel ruthenium complex with xanthoxylin induces S-phase arrest and causes ERK1/2-mediated apoptosis in HepG2 cells through a p53-independent pathway” (Cell Death & Disease, 2018)
